Earlier results, collected in patent US12161617B2, “Methocarbamol compositions and related methods” (Exela Sterile Medicines LLC, priority 2014, dated 2024).

COc1ccccc1OCC(O)COC(N)=O (centres unmarked) [methocarbamol, 3-(2-methoxyphenoxy)-1,2-propanediol 1-carbamate]
differences with respect to methocarbamol absorption (patients undergoing maintenance haemodialysis vs normal subjects): no significant differences | relative systemic availability in patients (renal dialysis patients relative to normal subjects): 113%
